Results as given in ChEMBL document CHEMBL5241095, “Developments of CRBN-based PROTACs as potential therapeutic agents” (Eur J Med Chem, 2021).

How the values were obtained:
[1] = biological target: Protein cereblon/Peptidyl-prolyl cis-trans isomerase FKBP1A (Homo sapiens, UniProt P62942+Q96SW2); test: Protac activity at CRBN/FKBP12 in human Jurkat cells; type: cell-based
A549 = test: Antiproliferative activity against human A549 cells assessed as cell growth inhibition; type: functional, cell-based
Huh-7 = test: Antiproliferative activity against human Huh-7 cells assessed as cell growth inhibition; type: functional, cell-based
HepG2 = test: Antiproliferative activity against human HepG2 cells assessed as cell growth inhibition; type: functional, cell-based
Protein cereblon/Basigin [2] = biological target: T1, Protein cereblon/Basigin (Homo sapiens, UniProt P35613+Q96SW2); test: Protac activity at CRBN/CD147 in human SK-MEL-28 cells by Western blotting analysis; type: cell-based
Protein cereblon/Basigin [3] = biological target: T1, Protein cereblon/Basigin; test: Protac activity at CRBN/CD147 in human BV-173 cells by Western blotting analysis; type: cell-based
[4] = biological target: T2, Protein cereblon/Tyrosine-protein kinase BTK (Homo sapiens, UniProt Q06187+Q96SW2); test: Protac activity at CRBN/BTK in human MINO cells; type: cell-based
[5] = biological target: T2, Protein cereblon/Tyrosine-protein kinase BTK; test: Protac activity at CRBN/BTK in human MINO cells relative to control; type: cell-based
[6] = biological target: Protein cereblon/Protein deacetylase HDAC6 (Homo sapiens, UniProt Q96SW2+Q9UBN7); test: Protac activity at CRBN/HDAC6 in human MM1.S cells incubated for 24 hrs by Immunoblotting analysis; type: cell-based
Protein cereblon = Protein cereblon (Homo sapiens, UniProt Q96SW2); test: Binding affinity to CRBN (unknown origin) by Tr-FRET assay
[7] = biological target: Protein cereblon/Interleukin-1 receptor-associated kinase 4 (Homo sapiens) (UniProt Q9NWZ3+Q96SW2); test: Protac activity at CRBN/IRAK4 in HEK293T cells at 405 nM measured after 24 hrs by immunoblotting analysis relative to control; type: cell-based
[8] = biological target: T3, Protein cereblon/GTPase KRas (Homo sapiens, UniProt P01116+Q96SW2, G12C); test: Protac activity at CRBN/KRAS G12C mutant in human MIA PaCa-2 cells incubated for 16 hrs by immunoblotting analysis; type: cell-based
[9] = biological target: T3, Protein cereblon/GTPase KRas; test: Protac activity at CRBN/KRAS G12C mutant in human NCI-H358 cells incubated for 16 hrs by immunoblotting analysis; type: cell-based
Protein cereblon-NS3 = Protein cereblon-NS3 (Hepacivirus hominis, UniProt A3EZJ3+Q96SW2); test: Protac activity at CRBN/NS3 in human Huh7.5 cells; type: cell-based

## COC1C(=O)[C@H](C)C[C@H](C)/C=C/C=C/C=C(\C)[C@@H](OC)C[C@@H]2CC[C@@H](C)[C@@](O)(O2)C(=O)C(=O)N2CCCC[C@H]2C(=O)O[C@H]([C@H](C)C[C@@H]2CC[C@@H](OCCOCc3cn(CCOCCOCCNc4cccc5c4C(=O)N(C4CCC(=O)NC4=O)C5=O)nn3)[C@H](OC)C2)CC(=O)[C@H](C)/C=C(\C)[C@H]1O (some centres undefined)
[1]
  DC50: 0.3 nM

## C[C@H]1[C@H](C)CC[C@]2(C(=O)NCCCCOCCNc3cccc4c3C(=O)N(C3CCC(=O)NC3=O)C4=O)CC[C@]3(C)C(=CC[C@@H]4[C@@]5(C)CC[C@H](O)C(C)(C)C5CC[C@]43C)[C@H]12 (some centres undefined)
A549
  IC50: 230 nM
Huh-7
  IC50: 230 nM
HepG2
  IC50: 230 nM

## COC(=O)C1=CC[C@@]23CC[C@@H]([C@@](C)(/C=C/C=C(\C)C(=O)NCCNc4cccc5c4C(=O)N(C4CCC(=O)NC4=O)C5=O)OC2=O)[C@@]3(OC(C)=O)CC1 (some centres undefined)
Protein cereblon/Basigin [2]
  DC50: 6720 nM

## CC(=O)c1c(C)c2cnc(Nc3ccc(N4CCN(C(=O)CNCCCCNC(=O)COc5cccc6c5C(=O)N(C5CCC(=O)NC5=O)C6=O)CC4)cn3)nc2n(C2CCCC2)c1=O (centres undefined)
Protein cereblon/Basigin [3]
  DC50: 4.4 nM

## CC(C)(/C=C(\C#N)C(=O)N1CCC[C@@H](n2nc(-c3ccc(Oc4ccccc4)cc3)c3c(N)ncnc32)C1)CCCCCCCCOc1cccc2c1C(=O)N(C1CCC(=O)NC1=O)C2=O (some centres undefined)
[4]
  DC50: < 10 nM
[5]
  Emax: 90%

## CCCCN(Cc1ccc(C(=O)NO)cc1)C(=O)Nc1ccc(NC(=O)CCCc2cn(CCOCCNc3cccc4c3C(=O)N(C3CCC(=O)NC3=O)C4=O)nn2)cc1 (centres undefined)
[6]
  IC50: 3.2 nM

## CC(C)Nc1cc(-n2ccc3cc(C#N)cnc32)ccc1C(=O)N[C@H]1CC[C@H](C(=O)NCCOCCNC(=O)COc2cccc3c2C(=O)N(C2CCC(=O)NC2=O)C3=O)CC1 (some centres undefined)
Protein cereblon
  Kd: 490 nM
[7]
  Emax: 90%

## C=CC(=O)N1CCN(c2nc(NCCCN3CCN(CCCNc4cccc5c4C(=O)N(C4CCC(=O)NC4=O)C5=O)CC3)nc3c(F)c(-c4cc(O)cc5ccccc45)c(Cl)cc23)CC1 (centres undefined)
[8]
  DC50: 1200 nM
[9]
  DC50: 6000 nM

## CCC[C@H](NC(=O)[C@@H]1[C@H]2CCC[C@H]2CN1C(=O)[C@@H](NC(=O)C(NC(=O)c1cnc(C(=O)NCCOCCOCCOc2cc3c4c(cccc4c2)C(=O)N(C2CCC(=O)NC2=O)C3=O)cn1)C1CCCCC1)C(C)(C)C)C(=O)C(=O)NC1CC1 (some centres undefined)
Protein cereblon-NS3
  IC50: 748 nM
